Data reported in patent US8710085B2, “Pyrrolidine-1,2-dicarboxamide derivatives” (Novartis AG, priority 2008, dated 2014).

Assays:
[1] = target: T1, PI3Kγ (Homo sapiens, UniProt P48736, Q459R); assay: PI3K KinaseGlo assay, PI3Kγ; assay type: biochemical; settings: 150 nM enzyme, 1 μM ATP, 90 mins, room temperature, read-out: PI3Kg/IC50
T1 construct: p110γ(Δ143-[Met144-1102])-His; made in house; host or cells: Tn5 insect cells; construct from Roger Williams lab, MRC LMB
Experimental: (§1) L-a-phosphatidylinositol (PI), provided as 10 mg/ml solution in methanol, was transferred into a glass tube and dried under nitrogen beam. It was then resuspended in 3% OctylGlucoside (OG) by vortexing and stored at 4° C. The KinaseGlo Luminescent Kinase Assay (Promega, Madison/WI, USA) is a homogeneous HTS method of measuring kinase activity by quantifying the amount of ATP remaining in solution following a kinase reaction.
5 μL of a mix of PI/OG with the PI3K subtype were added (Table 1). Kinase reactions were started by addition of 5 μl of ATP-mix containing in a final volume 10 μL 10 mM TRIS-HCl pH 7.5, 3 mM MgCl2, 50 mM NaCl, 0.05% CHAPS, 1 mM DTT and 1 μM ATP, and occurred at room temperature. […] The standard was used as a reference compound and included in all assay plates in the form of 16 dilution points in duplicate. […]
(§2) PI3Kα, PI3Kβ and PI3Kγ were purified in two chromatographic steps: immobilized metal affinity chromatography (IMAC) on a Ni sepharose resin (GE Healthcare) and gel filtration utilizing a Superdex 200 26/60 column (GE Healthcare). All buffers were chilled to 4° C. and lysis was performed chilled on ice. Column fractionation was performed at room temperature. All buffers used to purify PI3Kβ contained 0.05% Triton X100 in addition to what is described below.
(§3) The lysate was centrifuged at 45,000 g for 30 minutes, and the supernatant was loaded onto a pre-equilibrated IMAC column (3 mL resin/100 mL lysate). […] Protein was eluted with 20 mM Tris-Cl, pH 7.5, 0.5 M NaCl, 5% glycerol, 250 mM imidazole, 1 mM NaF, 0.1 μg/mL OAA, 5 mM BME, 1× Complete protease inhibitor cocktail—EDTA-free. Pertinent fractions were analyzed by SDS-PAGE and pooled accordingly. The protein was further purified by gel filtration on a Superdex 200 26/60 column equilibrated in 20 mM Tris-Cl, pH 7.5, 0.5 M NaCl, 5% glycerol, 1 mM NaF, 5 mM DTT, 1× Complete protease inhibitor cocktail—EDTA-free. Pertinent fractions were analyzed by SDS-PAGE and pooled accordingly. An equal volume of Dialysis Buffer (20 mM Tris-Cl, pH 7.5, 500 mM NaCl, 50% glycerol, 5 mM NaF, 5 mM DTT) was added to the pool and than dialyzed against Dialysis Buffer two changes (one change overnight). Protein was stored at −20° C.

[2] = target: T2, PI3Kalpha H1047R (Homo sapiens, UniProt P42336, H1047R); assay: Luciferase luminescence assay (KinaseGlo), PI3Kalpha H1047R; assay type: biochemical; settings: construct BV1097; 1 μM ATP, 15 min preincubation, 1 h, room temperature; read-out: PI3Kalpha H1047R IC50s
T2 construct: made in house; host or cells: baculovirus (vector LR480)
Source text: (§4) Luminescence is a well established readout to determine ATP concentrations and can thus be used to follow the activity of many kinases regardless of their substrate. The KinaseGlo Luminescent Kinase Assay (Promega, Madison/WI, USA) is a homogeneous HTS method of measuring kinase activity by quantifying the amount of ATP remaining in solution following a kinase reaction.

[3] = target: T3, PI3Kalpha wild type (Homo sapiens, UniProt P42336); assay: Luciferase luminescence assay (KinaseGlo), PI3Kalpha wild type; assay type: biochemical; settings: construct BV1075; 1 μM ATP, 15 min preincubation, 1 h, room temperature; read-out: PI3Kalpha wild type IC50s
T3 construct: p110α(21-1068)-His; made in house
Source text: as §4

[4] = target: T4, PI3Kalpha E545K (Homo sapiens, UniProt P42336, E545K); assay: Luciferase luminescence assay (KinaseGlo), PI3Kalpha E545K; assay type: biochemical; settings: construct BV1147; 1 μM ATP, 15 min preincubation, 1 h, room temperature; read-out: PI3Kalpha E545K IC50s
T4 construct: made in house; host or cells: baculovirus (vector LR561)
Source text: as §4

[5] = target: T5, PI3Kδ (Homo sapiens, UniProt O00329); assay: PI3K KinaseGlo assay, PI3Kδ; assay type: biochemical; settings: 10 nM enzyme, 1 μM ATP, 30 mins, room temperature, read-out: PI3Kd/IC50
T5 construct: p85iSH2(461-568)-GGGGGG-p110δ(2-1044)-His; made in house; host or cells: baculovirus, Tn5 insect cells

[6] = target: T6, PI3Kα (Homo sapiens, UniProt P42336); assay: PI3K KinaseGlo assay, PI3Kα; assay type: biochemical; settings: KinaseGlo; 10 nM enzyme, 1 μM ATP, 30 mins, room temperature; read-out: PI3Ka/IC50
T6 construct: p110α(21-1068)-His; made in house; host or cells: baculovirus, Tn5 insect cells

[7] = target: T7, PI3Kβ (Homo sapiens, UniProt P42338); assay: PI3K KinaseGlo assay, PI3Kβ; assay type: biochemical; settings: KinaseGlo; 25 nM enzyme, 1 μM ATP, 30 mins, room temperature; read-out: PI3Kb/IC50
T7 construct: p110β(2-1070)-His; made in house; host or cells: baculovirus, Tn5 insect cells
Experimental: as §1, with “PI3K KinaseGlo assay: […] of compound dilutions were dispensed onto black 384-well low volume Non Binding Styrene (NBS) plates (Costar Cat. No. NBS#3676). L-a-phosphatidylinositol” for “L-a-phosphatidylinositol”
5 μL of a mix of PI/OG with the PI3K subtype were added (Table 1). Kinase reactions were started by addition of 5 μl of ATP-mix containing in a final volume 10 μL 10 mM TRIS-HCl pH 7.5, 3 mM MgCl2, 50 mM NaCl, 0.05% CHAPS, 1 mM DTT and 1 μM ATP, and occurred at room temperature. […] The standard was used as a reference compound and included in all assay plates in the form of 16 dilution points in duplicate.
The PI3Kα, PI3Kβ and PI3Kδ constructs are fusion of p85α iSH2 domain and the respective p110 isoforms. The p85α fragment and p110 isoform genes were generated by PCR from first strand cDNA generated by RT-PCR from commercial RNA from placenta, testis and brain as described below. The PI3Kγ construct was obtained from Roger Williams lab, MRC Laboratory of Molecular Biology, Cambridge, UK (November, 2003) and is described (Pacold, Michael E.; Suire, Sabine; Perisic, Olga; Lara-Gonzalez, Samuel; Davis, Colin T.; Walker, Edward H.; Hawkins, Phillip T.; Stephens, Len; Eccleston, John F.; Williams, Roger L. Crystal structure and functional analysis of Ras binding to its effector phosphoinositide 3-kinase gamma. Cell (2000), 103(6), 931-943).
BV949: PCR products for the inter SH2 domain (iSH2) of the p85 PI3Kα, PI13Kβ and PI3Kδ subunit and for the full-length p110β subunit were generated and fused by overlapping PCR. […] The p11013 fragment was obtained by PCR using as template a p110β clone (from unknown source that was sequence verified) using primers gwG130-p04 (5′-[…]-[…]-3′) (SEQ ID NO: 9) which contains linker sequences and the 5′ end of p110β and gwG130-p06 (5′-[…]-[…]-3′) (SEQ ID NO: 10) which contains sequences of the 3′ end of p110-β fused to a Histidine tag. […] This final product was recombined in a Gateway (Invitrogen) […] into the donor vector pDONR201 (Invitrogen) to generate the ORF253 entry clone. This clone was verified by sequencing and used in a Gateway LR reaction (Invitrogen) to transfer the insert into the Gateway adapted pBlueBac4.5 (Invitrogen) vector for generation of the baculovirus expression vector LR280.
as §2
as §3, with “accordingly.” for “accordingly. An equal volume of Dialysis Buffer (20 mM Tris-Cl, pH 7.5, 500 mM NaCl, 50% glycerol, 5 mM NaF, 5 mM DTT) was added to the pool and than dialyzed against Dialysis Buffer two changes (one change overnight). Protein was stored at −20° C.”

[8] = In vitro metabolic clearance, human liver microsomes (CYP MetCL-Hu); assay type: in vitro ADME; settings: human liver microsomes 0.5 mg/mL, test article 1.0 μM, NADPH, 37° C.; read-out: CYP MetCL-Hu/CL(int)
Experimental: (§5) Final test article and protein concentrations, as well as incubation duration, are shown below (Table 1). Low test article concentrations were selected to comply with the assumption that reaction kinetics are evaluated at a concentration less than (or approximately equal to) Km. DMSO is known to have an inhibitory effect on CYP activity. Therefore, the concentration of DMSO in the incubation media has been restricted to 0.01% (v/v) so that interference to the metabolic process is minimized.
(§6) A typical experiment is performed in 96-well format with shaking incubation at 37° C. […] A 30 minutes negative control incubation (minus cofactor) is also performed to assess CYP-unrelated stability issues (eg, chemical instability, CYP-independent metabolism).
In general, TA's in 10 mM DMSO are diluted 1:1000 into 0.6% ACN (v/v) in DiH20 to 10 μM. […] For evaluation of UGT-mediated metabolism, the suspension may be first pretreated by 5 min incubation on ice with alamethicin (25 μg/mg of microsomal protein). TA (35 μL) is added to 140 μL of the microsomal suspensions for 175 μL enzymesubstrate mixture. […] The 30 min negative control incubation is processed by combining 25 μL of enzyme.substrate mixture with an equal volume of 50 mM KPi containing 4 mM MgCl2. Following a 30 minute incubation at 37° C., the mix is quenched by adding 50 μL of ACN containing the MS internal standard (2 μM alprenolol). The T=0 min time point is processed by combining 25 μL of enzyme.substrate mixture directly with 50 μL of ACN containing the MS internal standard (2 μM alprenolol). 25 μL of the cofactor solution is added (2 mM NADPH in 50 mM KPi plus 4 mM MgCl2; optionally including 2 mM UDPGA for CYP+UGT assays) to simulate the complete quenched reaction mixture.
(§7) The bulk reactions for the remaining time points are initiated by addition of 125 μL of cofactor solution (2 mM NADPH in 50 mM KPi plus 4 mM MgCl2) to the remaining 125 μL of enzyme.substrate mixture. […] All the samples are centrifuged at ˜3400×g at 4° C. for 10 min and the supernatants are analyzed by LC-MS/MS for quantitation of remaining TA. […]

[9] = In vitro metabolic clearance, rat liver microsomes (CYP MetCL-Ra); assay type: in vitro ADME; settings: rat liver microsomes 0.5 mg/mL, test article 1.0 μM, NADPH, 37° C.; read-out: CYP MetCL-Ra/CL(int)
Experimental: as §5, §6
In general, TA's in 10 mM DMSO are diluted 1:1000 into 0.6% ACN (v/v) in DiH20 to 10 μM. […] For evaluation of UGT-mediated metabolism, the suspension may be first pretreated by 5 min incubation on ice with alamethicin (25 μg/mg of microsomal protein). […]
as §7

T4 sequence (P42336 with tags, fused parts or gaps E545K): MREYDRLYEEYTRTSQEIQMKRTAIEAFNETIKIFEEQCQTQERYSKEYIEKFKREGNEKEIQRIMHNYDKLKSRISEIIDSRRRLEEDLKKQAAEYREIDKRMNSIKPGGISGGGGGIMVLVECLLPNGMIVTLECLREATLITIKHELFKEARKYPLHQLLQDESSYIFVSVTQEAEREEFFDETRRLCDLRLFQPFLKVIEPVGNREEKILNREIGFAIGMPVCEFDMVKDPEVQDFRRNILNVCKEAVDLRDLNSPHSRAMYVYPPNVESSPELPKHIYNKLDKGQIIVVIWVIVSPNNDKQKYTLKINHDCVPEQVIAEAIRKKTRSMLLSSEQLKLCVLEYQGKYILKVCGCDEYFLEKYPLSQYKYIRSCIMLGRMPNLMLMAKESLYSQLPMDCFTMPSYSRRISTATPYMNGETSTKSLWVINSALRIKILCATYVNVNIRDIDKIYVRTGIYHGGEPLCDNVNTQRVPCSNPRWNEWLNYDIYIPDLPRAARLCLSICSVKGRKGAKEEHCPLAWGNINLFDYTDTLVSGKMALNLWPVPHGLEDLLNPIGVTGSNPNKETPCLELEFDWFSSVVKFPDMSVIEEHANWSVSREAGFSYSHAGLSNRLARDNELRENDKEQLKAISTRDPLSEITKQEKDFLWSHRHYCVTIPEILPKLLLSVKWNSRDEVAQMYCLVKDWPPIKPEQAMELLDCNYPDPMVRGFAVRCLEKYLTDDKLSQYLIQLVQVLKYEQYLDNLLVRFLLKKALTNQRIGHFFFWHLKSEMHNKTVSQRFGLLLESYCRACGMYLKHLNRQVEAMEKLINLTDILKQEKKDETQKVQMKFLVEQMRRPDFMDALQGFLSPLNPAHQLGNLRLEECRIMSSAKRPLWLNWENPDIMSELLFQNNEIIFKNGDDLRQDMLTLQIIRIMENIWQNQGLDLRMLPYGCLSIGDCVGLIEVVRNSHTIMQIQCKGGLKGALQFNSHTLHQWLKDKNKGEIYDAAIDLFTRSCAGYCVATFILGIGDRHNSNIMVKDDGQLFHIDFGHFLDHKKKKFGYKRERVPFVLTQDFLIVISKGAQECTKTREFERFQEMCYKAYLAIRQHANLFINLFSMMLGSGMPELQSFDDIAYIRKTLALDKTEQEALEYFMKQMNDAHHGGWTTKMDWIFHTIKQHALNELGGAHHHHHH
T1 sequence (P48736 with tags, fused parts or gaps Q459R): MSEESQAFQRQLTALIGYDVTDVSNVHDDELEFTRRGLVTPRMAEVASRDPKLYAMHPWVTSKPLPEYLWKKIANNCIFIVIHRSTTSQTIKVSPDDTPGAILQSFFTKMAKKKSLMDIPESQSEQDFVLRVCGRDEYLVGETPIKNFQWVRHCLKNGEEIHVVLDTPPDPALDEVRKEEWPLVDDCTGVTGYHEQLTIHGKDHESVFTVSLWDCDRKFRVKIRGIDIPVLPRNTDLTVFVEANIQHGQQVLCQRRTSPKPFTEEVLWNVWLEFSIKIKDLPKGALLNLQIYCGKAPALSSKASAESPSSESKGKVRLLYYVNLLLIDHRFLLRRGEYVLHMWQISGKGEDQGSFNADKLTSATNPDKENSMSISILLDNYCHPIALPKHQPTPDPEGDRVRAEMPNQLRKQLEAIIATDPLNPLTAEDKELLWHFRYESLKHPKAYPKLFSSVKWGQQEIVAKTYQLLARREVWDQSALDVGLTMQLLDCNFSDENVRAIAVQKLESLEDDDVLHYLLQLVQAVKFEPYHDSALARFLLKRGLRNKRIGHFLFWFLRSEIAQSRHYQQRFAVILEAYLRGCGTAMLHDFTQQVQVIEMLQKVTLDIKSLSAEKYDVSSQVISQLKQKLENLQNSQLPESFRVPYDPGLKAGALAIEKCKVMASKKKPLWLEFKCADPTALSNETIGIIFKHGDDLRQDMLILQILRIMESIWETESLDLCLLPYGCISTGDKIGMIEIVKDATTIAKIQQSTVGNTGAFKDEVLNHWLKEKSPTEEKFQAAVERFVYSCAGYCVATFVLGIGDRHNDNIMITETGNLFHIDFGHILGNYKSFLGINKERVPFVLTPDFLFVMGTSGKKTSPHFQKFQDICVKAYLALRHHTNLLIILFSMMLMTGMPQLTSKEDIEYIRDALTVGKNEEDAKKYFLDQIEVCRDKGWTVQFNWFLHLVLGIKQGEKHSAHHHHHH
T5 sequence (O00329 with tags, fused parts or gaps): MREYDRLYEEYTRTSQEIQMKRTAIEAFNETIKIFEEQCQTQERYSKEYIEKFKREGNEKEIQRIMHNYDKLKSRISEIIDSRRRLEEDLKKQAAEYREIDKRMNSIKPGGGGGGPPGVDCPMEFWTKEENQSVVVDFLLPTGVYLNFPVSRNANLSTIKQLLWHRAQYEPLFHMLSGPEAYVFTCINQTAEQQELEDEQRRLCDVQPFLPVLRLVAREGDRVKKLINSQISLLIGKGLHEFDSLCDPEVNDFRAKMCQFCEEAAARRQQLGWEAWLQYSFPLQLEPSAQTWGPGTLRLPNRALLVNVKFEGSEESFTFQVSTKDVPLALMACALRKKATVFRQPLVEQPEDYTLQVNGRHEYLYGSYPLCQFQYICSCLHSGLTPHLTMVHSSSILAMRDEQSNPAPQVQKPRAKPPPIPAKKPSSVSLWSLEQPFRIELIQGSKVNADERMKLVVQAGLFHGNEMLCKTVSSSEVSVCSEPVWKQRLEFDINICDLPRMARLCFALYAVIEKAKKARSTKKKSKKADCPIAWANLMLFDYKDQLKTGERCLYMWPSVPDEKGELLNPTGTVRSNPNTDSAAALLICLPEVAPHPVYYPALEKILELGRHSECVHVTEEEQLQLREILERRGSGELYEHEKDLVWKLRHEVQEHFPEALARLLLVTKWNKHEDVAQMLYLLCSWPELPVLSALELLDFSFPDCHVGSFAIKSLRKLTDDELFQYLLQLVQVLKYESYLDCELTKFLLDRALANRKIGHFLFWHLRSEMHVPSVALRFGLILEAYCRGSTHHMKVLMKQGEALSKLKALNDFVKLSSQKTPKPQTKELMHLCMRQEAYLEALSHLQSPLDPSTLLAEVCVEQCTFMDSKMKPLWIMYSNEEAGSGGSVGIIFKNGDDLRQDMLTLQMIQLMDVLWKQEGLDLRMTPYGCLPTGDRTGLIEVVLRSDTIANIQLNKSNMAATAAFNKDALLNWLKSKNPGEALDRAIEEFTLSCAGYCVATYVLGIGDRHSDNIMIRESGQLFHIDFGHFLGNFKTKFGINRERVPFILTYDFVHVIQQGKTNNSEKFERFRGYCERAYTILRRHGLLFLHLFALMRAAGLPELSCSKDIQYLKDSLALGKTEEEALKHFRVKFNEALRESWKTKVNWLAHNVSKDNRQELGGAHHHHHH
T2 sequence (P42336 with tags, fused parts or gaps H1047R): as the sequence (P42336 with tags, fused parts or gaps E545K) above, with K646E, H1148R counted along it
T6 sequence (P42336 with tags, fused parts or gaps): as the sequence (P42336 with tags, fused parts or gaps E545K) above, with I112G, S113G, I119G, M120G, V121G, K646E counted along it
T3 sequence (P42336 with tags, fused parts or gaps): as the sequence (P42336 with tags, fused parts or gaps E545K) above, with I112G, S113G, I119G, M120G, V121G, K646E counted along it
T7 sequence (P42338 with tags, fused parts or gaps): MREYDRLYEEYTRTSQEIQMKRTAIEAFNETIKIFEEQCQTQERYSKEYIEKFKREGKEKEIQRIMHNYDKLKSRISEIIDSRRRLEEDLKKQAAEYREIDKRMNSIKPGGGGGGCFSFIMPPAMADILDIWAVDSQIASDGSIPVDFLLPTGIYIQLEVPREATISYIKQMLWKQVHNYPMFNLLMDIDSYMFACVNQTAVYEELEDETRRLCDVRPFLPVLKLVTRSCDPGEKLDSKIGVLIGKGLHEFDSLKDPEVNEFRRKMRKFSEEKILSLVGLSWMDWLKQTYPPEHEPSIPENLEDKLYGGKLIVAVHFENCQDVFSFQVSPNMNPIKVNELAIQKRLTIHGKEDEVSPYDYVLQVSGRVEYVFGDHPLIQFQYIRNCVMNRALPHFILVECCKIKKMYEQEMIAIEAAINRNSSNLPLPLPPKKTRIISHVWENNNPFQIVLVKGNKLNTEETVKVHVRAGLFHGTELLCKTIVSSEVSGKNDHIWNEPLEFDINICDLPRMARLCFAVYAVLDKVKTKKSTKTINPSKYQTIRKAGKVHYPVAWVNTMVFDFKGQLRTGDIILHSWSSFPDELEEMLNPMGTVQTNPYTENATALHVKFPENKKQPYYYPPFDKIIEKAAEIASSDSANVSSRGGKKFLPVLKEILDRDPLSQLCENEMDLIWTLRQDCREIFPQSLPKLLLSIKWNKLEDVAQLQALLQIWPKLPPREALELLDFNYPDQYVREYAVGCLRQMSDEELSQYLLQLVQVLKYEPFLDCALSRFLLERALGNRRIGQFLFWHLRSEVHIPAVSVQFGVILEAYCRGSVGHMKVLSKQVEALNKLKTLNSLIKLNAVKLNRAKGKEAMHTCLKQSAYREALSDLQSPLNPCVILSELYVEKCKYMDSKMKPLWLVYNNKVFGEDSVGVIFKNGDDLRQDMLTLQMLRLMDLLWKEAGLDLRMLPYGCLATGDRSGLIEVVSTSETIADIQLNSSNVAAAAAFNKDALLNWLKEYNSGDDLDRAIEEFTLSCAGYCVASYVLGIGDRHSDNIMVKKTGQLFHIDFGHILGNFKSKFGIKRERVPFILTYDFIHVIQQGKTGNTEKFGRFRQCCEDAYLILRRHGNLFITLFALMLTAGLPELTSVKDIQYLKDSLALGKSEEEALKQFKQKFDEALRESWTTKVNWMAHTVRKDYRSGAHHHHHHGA

| IC50 [1] [nM] | IC50 [2] [nM] | IC50 [3] [nM] | IC50 [4] [nM] | IC50 [5] [nM] | IC50 [6] [nM] | IC50 [7] [nM] | SMILES | microsomal CLint at 1 μM [8] [µL/min/mg] | microsomal CLint at 1 μM [9] [µL/min/mg] |
| --- | --- | --- | --- | --- | --- | --- | --- | --- | --- |
| 2050 | 7.7 | 8.2 | 6.7 | 648 | 44 | 3900 | Cc1nc(NC(=O)N2CCC[C@H]2C(N)=O)sc1-c1ccnc(C2(C)CC2)c1 [Example 5, (S)-Pyrrolidine-1,2-dicarboxylic acid 2-amide 1-({4-methyl-5-[2-(1-methylcyclopropyl)-pyridin-4-yl]-thiazol-2-yl}-amide)] | – | – |
| – | – | – | – | – | – | – | [2H]C([2H])([2H])C(c1nccc(-c2sc(NC(=O)N3CCC[C@H]3C(N)=O)nc2C)n1)(C([2H])([2H])[2H])C([2H])([2H])[2H] [Example 61, (S)-Pyrrolidine-1,2-dicarboxylic acid 2-amide 1-{[5-(2-d9-tert-butyl-pyrimidin-4-yl)-4-methyl-thiazol-2-yl]-amide}] | 19 | 22 |
